Each structure is given as a SMILES string.

One data set concerns L6. Kind of data set: Cytotoxicity against rat L6 cells. The format is cell-based.
The nature of data set [1]: Selectivity index, ratio of IC50 for rat L6 cells to IC50 for erythrocytic stage of Plasmodium falciparum K1. The format is toxicity, cell-based. Particulars: read-out: Ratio IC50.
The subject of a further data set is Plasmodium falciparum. Kind of data set: Antimalarial activity against erythrocytic stage of Plasmodium falciparum K1 after 18 hrs by [3H]-hypoxanthine incorporation assay. The format is functional, organism-based.

`CCN(CC)CCCC(C)Nc1ccnc2cc(Cl)ccc12` (centres undefined) [CHLOROQUINE]: in the data set with L6, 120 µM corresponded to half-maximal inhibition (IC50).
Regarding `CNc1nc(C#N)nc2c1ncn2[C@@H]1O[C@H](C)[C@@H](O)[C@H]1O`, in data set [1], the selectivity ratio is 3. The results for the IC50 in the data set on L6 and in the data set on Plasmodium falciparum were 85 µM and 31.2 µM, respectively.
Regarding `C[C@H]1O[C@@H](n2cnc3c(N)nc(C#N)nc32)[C@H](O)[C@@H]1O`, the selectivity ratio in data set [1] was 5. Also, the results for the IC50 in the data set on L6 and in the data set on Plasmodium falciparum were 177 µM and 33.5 µM, respectively.
On the same counts, the results for `C[C@H]1O[C@@H](n2cnc3c(N)nc(NN)nc32)[C@H](O)[C@@H]1O` are 4, 188 µM and 42 µM.
In the same order, the values of `C[C@H]1O[C@@H](n2cnc3c(N)nc(N)nc32)[C@H](O)[C@@H]1O` are 22, 338 µM and 15.6 µM.
Consider `CNc1nc(I)nc2c1ncn2[C@@H]1O[C@H](C)[C@@H](O)[C@H]1O`, for which, in data set [1], the selectivity ratio was determined as 2. Also, the half-maximal inhibitory concentration (IC50) amounted to 137 µM in the data set on L6 and 64.9 µM with Plasmodium falciparum.
In the same order, the values of `CNc1nc(F)nc2c1ncn2[C@@H]1O[C@H](C)[C@@H](O)[C@H]1O` are 21, 236 µM and 11.5 µM.
Regarding `C[C@H]1O[C@@H](n2cnc3c(N)nc(F)nc32)[C@H](O)[C@@H]1O`, in data set [1], the selectivity ratio was 2. Further, the values for the IC50 in the data set with L6 and in the data set on Plasmodium falciparum were 2.1 µM and 1 µM, respectively.
For the compound `C[C@H]1O[C@@H](n2cnc3c(N)nc(N=[N+]=[N-])nc32)[C@H](O)[C@@H]1O`, the selectivity ratio in data set [1] was 2. Moreover, the results for the IC50 in the data set on L6 and with Plasmodium falciparum were 181 µM and 108 µM, respectively.
In the same order, the values of `C[C@H]1O[C@@H](n2cnc3c(N)nc(I)nc32)[C@H](O)[C@@H]1O` are 2, 110 µM and 55.9 µM.
For `CNc1ncnc2c1ncn2[C@@H]1O[C@H](C)[C@@H](O)[C@H]1O`, the selectivity ratio in data set [1] came out at 30. In addition, the IC50 in the data set on L6 amounted to 266 µM; in the data set with Plasmodium falciparum, 9.01 µM.
For the compound `C[C@H]1O[C@@H](n2cnc3c(N)nc(Cl)nc32)[C@H](O)[C@@H]1O`, the selectivity ratio in data set [1] came out at 8. Further, the values for the IC50 in the data set on L6 and in the data set on Plasmodium falciparum were 147 µM and 17.5 µM, respectively.

As usually defined, the IC50 is the concentration that inhibits the measured activity by half. Low values mean inhibition by little substance, high ones a need for much substance.

The values are drawn from ChEMBL document CHEMBL3797121, “Novel nucleoside-based antimalarial compounds” (Bioorg Med Chem Lett, 2016).
